# Measurements taken from US20240391942A1 (priority 2021, published 2024).
# pIC50: −log10 of the molar value.
# Experiments:
# Assay in all cases: cells
# Format in all cases: cell-based
# [1] = test system: SK-OV-3; settings: Homo sapiens, SK-OV-3, 72 h
# [2] = test system: A549; settings: Homo sapiens, A549, 72 h
# [3] = test system: NCI-H1299; settings: Homo sapiens, NCI-H1299, 72 h
# [4] = test system: U-937; settings: Homo sapiens, U-937, 72 h
# [5] = test system: A-375; settings: Homo sapiens, A-375, 72 h
# [6] = test system: SK-HEP-1; settings: Homo sapiens, SK-HEP1, 72 h
# [7] = test system: HCC827; settings: Homo sapiens, HCC827, 72 h
# [8] = test system: A-431; settings: Homo sapiens, A-431, 72 h
smiles,measurement,setting,value
CN[C@@H]1C[C@H]2O[C@@](C)([C@@H]1OC)n1c3ccccc3c3c4c(c5c6ccccc6n2c5c31)C(=O)NC4 [Staurosporine],pIC50,[1],7.55
same,pIC50,[2],7.88
same,pIC50,[3],8.04
same,pIC50,[4],7.86
same,pIC50,[5],7.74
same,pIC50,[6],7.77
same,pIC50,[7],7.79
same,pIC50,[8],7.68
